Source: patent publication US9718812B2, “Substituted thiazole or oxazole P2X7 receptor antagonists” (Axxam S.P.A., priority 2014, dated 2017)

What was measured:
Type in all cases: cell-based
P2X7 receptor [1] = molecular target: T1, P2X7 receptor (Homo sapiens (Human), UniProt Q99572); test: YO-PRO-1 Uptake Assay (large pore form, Bz-ATP stimulated); settings: HEK-293 cells stably transfected with P2X7 receptor; Bz-ATP EC80 (30 μM); 5 μM YO-PRO-1
How it was run: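 HEK-293 cells stably expressing P2X7 were preloaded with 5 μM YO-PRO-1 in low divalent cation buffer (0.3 mM Ca2+, 0 mM Mg2+). Compounds were added for 5 min before Bz-ATP at EC80 (30 μM, 3× concentration) and dye-uptake fluorescence was followed for 60 min. IC50 from percent inhibition relative to reference antagonist A438079.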

P2X7 receptor (hP2X7) = P2X7 receptor (hP2X7) (Homo sapiens (Human), UniProt Q99572); test: Screen Quest Fluo-8 No Wash Calcium Assay (Bz-ATP-induced Ca2+ influx, FLIPR TETRA); settings: HEK-293 cells stably transfected with P2X7 receptor, Fluo-8 calcium, Low Divalent Cation Assay Buffer
How it was run: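 HEK-293 cells stably transfected with P2X7, pre-loaded with Fluo-8 NW dye for 1 h at RT, then test compounds injected. Ca2+ influx on Bz-ATP stimulation followed as kinetic fluorescence (ex 488 nm, em 515-575 nm) over five minutes.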

P2X7 receptor [2] = molecular target: T1, P2X7 receptor; test: human P2X7 channel assay by automated patch-clamp (QPatch 16X); settings: HEK-293 cells expressing P2X7 channels, 100 microM BzATP, held at -80 mV, read-out: hP2X7 (IC50; nM)
Protocol: In order to directly monitor the block of P2X7 channel, an electrophysiological assay was developed and implemented on the QPatch 16X automated electrophysiology instrument.
HEK-293 cells expressing the P2X7 channels were cultured in modified EMEM.
72 hours before experiment, 5 million cells were seeded onto T225 flasks. Just before the experiment cells were washed twice, detached from the flask with trypsin-EDTA, re-suspended in the suspension solution and placed on the QPatch 16x.
The compounds (20 mM in a 100% DMSO) stored at −20° C. were prepared the day of the experiment (a first dilution 1:20 in 100% DMSO to prepare a 1 mM stock solution, then a 1 microM solution in external solution+a serial dilution 1:10).
The standard whole-cell voltage clamp experiments were performed at room temperature. For these experiments the multihole technology was used and the data were sampled at 2 KHz.
The intracellular solution contained (mM) 135 CsF, 10 NaCl, 1 EGTA, 10 HEPES, (pH 7.2 with CsOH) whereas the extracellular contained (mM) 145 NaCl, 4 KCl, 0.5 MgCl2, 1 CaCl2, 10 HEPES, 10 Glc (pH 7.4 with NaOH).
After establishment of the seal and the passage in the whole cell configuration, the cells were held at −80 mV. The P2XR7 current was evoked by applying 100 microM of BzATP alone (4 times) and then in the presence increasing concentrations of the compound under investigation (1, 10, 100 and 1000 nM).
The pre-incubation periods 5 to 8 contain increasing concentrations of the compound of interest (1, 10, 100 and 1000 nM), as illustrated in Figure (application protocol).
The maximal inward current evoked by BzATP in absence or presence of increasing concentrations of the compounds under investigation was measured and normalized.
Y: normalized response, 100% down to 0%, decreasing as X increases.
Log IC50: same log units as X
HillSlope: slope factor or HS, unitless

T1 sequence (Q99572 whole entry): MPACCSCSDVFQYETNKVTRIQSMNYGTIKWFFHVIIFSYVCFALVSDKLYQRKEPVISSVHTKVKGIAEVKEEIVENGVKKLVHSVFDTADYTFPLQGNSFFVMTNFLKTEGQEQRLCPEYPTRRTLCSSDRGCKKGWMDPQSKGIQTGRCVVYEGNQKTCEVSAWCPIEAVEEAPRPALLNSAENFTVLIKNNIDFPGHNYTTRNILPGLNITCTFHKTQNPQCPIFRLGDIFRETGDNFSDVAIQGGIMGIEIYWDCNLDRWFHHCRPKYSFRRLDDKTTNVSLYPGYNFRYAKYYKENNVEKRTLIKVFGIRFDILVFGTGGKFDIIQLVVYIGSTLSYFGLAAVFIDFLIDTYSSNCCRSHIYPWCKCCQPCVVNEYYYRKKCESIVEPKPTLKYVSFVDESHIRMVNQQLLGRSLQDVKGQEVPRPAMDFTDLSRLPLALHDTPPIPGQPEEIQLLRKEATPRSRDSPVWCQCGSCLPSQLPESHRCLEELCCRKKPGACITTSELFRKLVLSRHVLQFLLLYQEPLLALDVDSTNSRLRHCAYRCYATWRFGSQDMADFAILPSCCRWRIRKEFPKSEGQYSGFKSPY
Chain of P2X7 receptor (hP2X7) (Q99572 whole entry): as above

Row | IC50 (P2X7 receptor [1]) [nM] | IC50 (P2X7 receptor (hP2X7)) [nM] | IC50 (P2X7 receptor [2]) [nM] | SMILES
1 | 60 | 30 | 78.1 | Cc1ncsc1C(CNC(=O)c1cc(-c2cnccn2)ccc1Cl)N1CCC(F)(F)CC1 (stereo not drawn) [Compound 72, 2-chloro-N-[2-(4,4-difluoropiperidin-1-yl)-2-(4-methyl-1,3-thiazol-5-yl)ethyl]-5-(pyrazin-2-yl)benzamide]
2 | 87 | 55 | 65.2 | Cc1cccc(-c2ccc(Cl)c(C(=O)NCC(c3scnc3C)N3CCC(F)(F)CC3)c2)n1 (stereo not drawn) [Compound 74, 2-chloro-N-[2-(4,4-difluoropiperidin-1-yl)-2-(4-methyl-1,3-thiazol-5-yl)ethyl]-5-(6-methylpyridin-2-yl)benzamide]
3 | 28 | 36 | 52.1 | O=C(NCC(c1cnc(C2CC2)s1)N1CCC(F)(F)CC1)c1c(F)cccc1Cl (stereo not drawn) [Compound 88, 2-chloro-N-[2-(2-cyclopropyl-1,3-thiazol-5-yl)-2-(4,4-difluoropiperidin-1-yl)ethyl]-6-fluorobenzamide]
4 | 34 | 60 | 57.1 | O=C(NCC(c1scnc1C(F)F)N1CCC(F)(F)CC1)c1cc(-c2ncc(F)cn2)ccc1Cl (stereo not drawn) [Compound 102, 2-chloro-N-{2-[4-(difluoromethyl)-1,3-thiazol-5-yl]-2-(4,4-difluoropiperidin-1-yl)ethyl}-5-(5-fluoropyrimidin-2-yl)benzamide]
